With `CCOc1cc(C(CS(C)(=O)=O)N2C(=O)c3ccc([N+](=O)[O-])c([N+](=O)[O-])c3C2=O)ccc1OC` (centres unmarked), the melting point was 122 to 124 °C.
In the case of `CCOc1cc(C(CS(C)(=O)=O)N2C(=O)c3cccc(NC(=O)C(C)N(C)C)c3C2=O)ccc1OC.Cl` (centres unmarked) it was 138 to 140 °C; in that of `CCOc1cc([C@H](CS(C)(=O)=O)N2C(=O)c3cccc(NC(=O)CN(C)C)c3C2=O)ccc1OC.Cl`, 192 to 194 °C; in that of `CCOc1cc([C@@H](CS(C)(=O)=O)N2C(=O)c3cccc(NC(=O)CN(C)C)c3C2=O)ccc1OC.Cl`, 202 to 204 °C.
Then `COc1ccc(C(CS(C)(=O)=O)N2C(=O)c3cccc(NC(=O)CN(C)C)c3C2=O)cc1OC.Cl` (centres unmarked), with 178 to 180 °C.
In the case of `CCOc1cc(C(CS(C)(=O)=O)N2Cc3cccc(NC(=O)CN(C)C)c3C2=O)ccc1OC.Cl` (centres unmarked) it was 145 to 147 °C.
In the case of `CCOc1cc(C(CC(=O)N(C)C)N2C(=O)c3cccc(NC(=O)CN(C)C)c3C2=O)ccc1OC.Cl` (centres unmarked), the melting point lay in the range of 92 to 94 °C.
Consider `CCOc1cc([C@@H](CC(=O)N(C)C)N2C(=O)c3cccc(NC(=O)CN(C)C)c3C2=O)ccc1OC.Cl`, for which the melting point fell in the range of 122 to 124 °C.
For `CCOc1cc(C(CS(C)(=O)=O)N2C(=O)c3ccc(N)c(N)c3C2=O)ccc1OC` (centres unmarked) [Example 2, 2-[1-(3-Ethoxy-4-methoxyphenyl)-2-methylsulfonylethyl]-4,5-diaminoisoindoline-1,3-dione], the melting point is 205 to 207 °C.
Then `CCOc1cc(C(CS(C)(=O)=O)N2C(=O)c3cccc(NC(=O)C4CC4)c3C2=O)ccc1OC` (centres unmarked) [Example 7, Cyclopropyl-N-{2-[1-(3-ethoxy-4-methoxyphenyl)-2-methylsulfonylethyl]-1,3-dioxoisoindolin-4-yl}carboxamide], with 153 to 155 °C; and `CCOc1cc(C(CS(C)(=O)=O)N2C(=O)c3cccc(NC(=O)CCl)c3C2=O)ccc1OC` (centres unmarked) [Example 8, 2-Chloro-N-{2-[1-(3-ethoxy-4-methoxyphenyl)-2-methylsulfonylethyl]-1,3-dioxoisoindolin-4-yl}acetamide], with 166 to 168 °C; and `CCOc1cc(C(CS(C)(=O)=O)N2C(=O)c3cccc(NC(=O)CN)c3C2=O)ccc1OC` (centres unmarked) [Example 9, 2-Amino-N-{2-[1-(3-ethoxy-4-methoxyphenyl)-2-methylsulfonylethyl]-1,3-dioxoisoindolin-4-yl}acetamide], with 111 to 112 °C.
In the case of `CCOc1cc(C(CS(C)(=O)=O)N2C(=O)c3cccc(NC(=O)C(F)(F)F)c3C2=O)ccc1OC` (centres unmarked) [Example 11, N-{2-[1-(3-ethoxy-4-methoxyphenyl)-2-methylsulfonylethyl]-1,3-dioxoisoindolin-4-yl}-2,2,2-trifluoroacetamide] it was 130 to 132 °C.
In the case of `CCOc1cc(C(CS(C)(=O)=O)N2C(=O)c3cccc(CONC=O)c3C2=O)ccc1OC` (centres unmarked) [Example 12, N-{2-[1-(3-Ethoxy-4-methoxyphenyl)-2-methylsulfonylethyl]-1,3-dioxoisoindolin-4-yl}methoxycarboxamide] it was 178 to 180 °C; in that of `CCOc1cc(C(CS(C)(=O)=O)N2C(=O)c3cccc(-c4nnc(C)o4)c3C2=O)ccc1OC` (centres unmarked) [Example 15, 2-[1-(3-Ethoxy-4-methoxyphenyl)-2-methylsulfonylethyl]-4-(5-methyl-1,3,4-oxadiazol-2-yl)isoindoline-1,3-dione], 99 to 101 °C; in that of `CCOc1cc(C(CC(C)O)N2C(=O)c3cccc(NC(C)=O)c3C2=O)ccc1OC` (centres unmarked) [Example 24, N-{2-[1-(3-ethoxy-4-methoxyphenyl)-3-hydroxybutyl]-1,3-dioxoisoindolin-4-yl}acetamide], 132 to 134 °C.
`CCOc1cc(C(CC(C)=O)N2C(=O)c3cccc(NC(C)=O)c3C2=O)ccc1OC` (centres unmarked) [Example 25, N-{2-[1-(3-Ethoxy-4-methoxyphenyl)-3-oxobutyl]-1,3-dioxoisoindolin-4-yl}acetamide] registered a melting point of 128 to 129 °C.
On to `CCOc1cc([C@@H](CC(C)=O)N2C(=O)c3cccc(NC(C)=O)c3C2=O)ccc1OC` [Example 27, N-{2-[1R-(3-ethoxy-4-methoxyphenyl)-3-oxobutyl]-1,3-dioxoisoindolin-4-yl}acetamide], for which the melting point was 81 to 83 °C.
In the case of `CCOc1cc(C(CS(C)(=O)=O)N2C(=O)c3cccc(NC(=O)C4CCCC4)c3C2=O)ccc1OC` (centres unmarked) [Example 45, Cyclopentyl-N-{2-[1-(3-ethoxy-4-methoxyphenyl)-2-(methylsulfonyl)ethyl]-1,3-dioxoisoindolin-4-yl}carboxamide] it was 134 to 136 °C; in that of `CCOc1cc(C(CS(C)(=O)=O)N2C(=O)c3cccc(NC(=O)CCN(C)C)c3C2=O)ccc1OC` (centres unmarked) [Example 46, 3-(Dimethylamino)-N-{2-[1-(3-ethoxy-4-methoxyphenyl)-2-(methylsulfonyl)ethyl]-1,3-dioxoisoindolin-4-yl}propanamide], 163 to 165 °C.
`CCOc1cc([C@@H](CS(C)(=O)=O)N2C(=O)c3cccc(NC(=O)C4CC4)c3C2=O)ccc1OC` [Example 51, Cyclopropyl-N-{2-[(1S)-1-(3-ethoxy-4-methoxyphenyl)-2-(methylsulfonyl)ethyl]-1,3-dioxoisoindolin-4-yl}carboxamide]: the melting point fell in the range of 140 to 141 °C.
In the case of `COc1ccc(C(CS(C)(=O)=O)N2C(=O)c3cccc(NC(=O)C4CC4)c3C2=O)cc1OC` (centres unmarked) [Example 54, Cyclopropyl-N-{2-[1-(3,4-dimethoxyphenyl)-2-(methylsulfonyl)ethyl]-1,3-dioxoisoindolin-4-yl}carboxamide] it was 130 to 132 °C; in that of `CCOc1cc([C@@H](CC(=O)N(C)C)N2Cc3cccc(NC(C)=O)c3C2=O)ccc1OC` [Example 59, (3R)-3-[7-(Acetylamino)-1-oxoisoindolin-2-yl]-3-(3-ethoxy-4-methoxyphenyl)-N,N-dimethylpropanamide], 88 to 90 °C.
Then `CCOc1cc([C@@H](CC(=O)N(C)C)N2Cc3cccc(NC(=O)C4CC4)c3C2=O)ccc1OC` [Example 60, (3R)-3-[7-(Cyclopropylcarbonylamino)-1-oxoisoindolin-2-yl]-3-(3-ethoxy-4-methoxyphenyl)-N,N-dimethylpropanamide], with 92 to 94 °C; and `CCOc1cc(C(CS(C)(=O)=O)N2C(=O)c3cccc(CNC(C)=O)c3C2=O)ccc1OC` (centres unmarked) [Example 66, N-({2-[1-(3-Ethoxy-4-methoxyphenyl)-2-(methylsulfonyl)ethyl]-1,3-dioxoisoindolin-4-yl}methyl)acetamide], with 84 to 86 °C; and `CCOc1cc(C(CS(C)(=O)=O)N2C(=O)c3cccc(N(S(C)(=O)=O)S(C)(=O)=O)c3C2=O)ccc1OC` (centres unmarked) [Example 69, 4-[Bis(methylsulfonyl)amino]-2-[1-(3-ethoxy-4-methoxyphenyl)-2-(methyl-sulfonyl)ethyl]isoindoline-1,3-dione], with 277 to 279 °C.
In turn, `CCOc1cc(C(CC(=O)CC)N2C(=O)c3cccc(NC(C)=O)c3C2=O)ccc1OC` (centres unmarked) [Example 72, N-{2-[1-(3-Ethoxy-4-methoxyphenyl)-3-oxopentyl]1,3-dioxoisoindolin-4-yl}acetamide] came in with a melting point of 137 to 139 °C.
`COc1ccc(C(CC(C)=O)N2C(=O)c3cccc(NC(C)=O)c3C2=O)cc1OC1CCCC1` (centres unmarked) [Example 76, N-{2-[1-(3-Cyclopentyloxy-4-methoxyphenyl)-3-oxobutyl]-1,3-dioxoisoindolin-4-yl}acetamide] registered a melting point of 145 to 147 °C.
Molecule `COc1ccc(C(CC(C)=O)N2C(=O)c3cccc(N(S(C)(=O)=O)S(C)(=O)=O)c3C2=O)cc1OC` (centres unmarked) [Example 78, 2-[1-(3,4-Dimethoxyphenyl)-3-oxobutyl]-4-[bis(methylsulfonyl)amino]isoindoline-1,3-dione] displayed a melting point of 194 to 196 °C.

By melting point is commonly meant the temperature of the solid-liquid transition.

The values are drawn from patent US6667316B1, “Pharmaceutically active isoindoline derivatives” (Celgene Corporation, priority 1999, dated 2003).
